Read-outs that look alike come from different tables or passages of the source.
How the values were obtained:
[1] = test system: Fibroblast Lactate Dehydrogenase; experiment: Fibroblast lactate dehydrogenase (LDH) inhibition, cell lysate; assay type: biochemical, human
Experimental: (§1) All reagents were purchased from Sigma Chemical Co., St. Louis, Mo., USA. Sigma procedure No. 500 was modified for our purposes. One mL of pyruvate (pH=7.5) substrate (Sigma […]-1) was added to a vial containing 1 mg NADH (Sigma 340-101). In a 96-well plate, the following components were added to each test well: 10 μl pyruvate/NADH mixture, and 10 μl cell lysate. For preparation cell lysates, neonatal human keratinocytes or fibroblasts (Clonetic Corp., San Diego, Calif.) were cultured in tissue culture plates (Corning, USA). Cells were scraped in PBS (pH=7.4) and this solution was used as a source of L-lactate dehydrogenase. If such cell lysate was not available, a commercial preparation of L-lactic dehydrogenase (E.C.1.1.1.27), Sigma L9889, from porcine heart could be used in place of the cell lysate. For positive control, the inhibitor was replaced with 10 μl of PBS. For blank determination, the lysate or enzyme was replaced with […]. After mixing, the plate was incubated for 30 minutes at 37° C. Then 20 μl of color reagent (Sigma 505-2) was added to each well. After 20 minutes at room temperature, 150 μl of 0.4N NaOH was added, and the plate was read for absorbance at 490 nm in a Dynatech MR 7000 Microplate Reader. To calculate % inhibition, the control activity (CA) was first determined by subtracting the absorbance of the positive control from the blank. Then the activity in the presence of the inhibitor (IA) was calculated by subtracting the appropriate absorbance from the blank. % Inhibition was then calculated as: ((CA-IA)/CA)*100.

[2] = test system: Normal human epidermal keratinocytes (NHEK); experiment: Keratinocyte proliferation (DNA content, fluorometric); assay type: cell-based; details: for activation at 313 µM / activation at 625 µM / activation at 1250 µM / activation at 2500 µM / activation at 5000 µM: Homo sapiens, NHEK, 72 h
Experimental: Normal human epidermal keratinocytes (NHEK) derived from neonatal foreskin were used for all experiments. Media were purchased from Clonetics Corp., San Diego, Calif. Cell stocks frozen in passage 2 were grown in Keratinocyte Growth Medium (KGM) and passaged when 70-80% confluent. Cells were seeded in 96 well plates (Corning) at a density of 7500 cells/well in KGM. After 24 hours, cells were rinsed and dosed with test compounds in 200 μl of Keratinocyte Basal Medium (KBM). Plates were incubated for three days at 37° C., 5% CO2. Cell proliferation was estimated by assaying for DNA content by a fluorometric method described by Rago et al. (Analytical Biochemistry, 191:31-34, 1990). Medium was removed and cells were rinsed with phosphate buffered saline solution. 100 μl of sterile distilled water was added to each well and plates were frozen at -70° C. for one and a half hours. Plates were thawed for one hour at which time 100 μl of a 20 ug/ml solution of Bisbenzimide H33258 fluorochrome (Calbiochem Corp., La Jolla, Calif.) was added to each well. The fluorochrome was prepared just prior to use in 10 mM Tris, 1 mM EDTA, 4M NaCI, pH 7.4. Plates were read in a Millipore Cytofluor fluorescent plate reader to quantify DNA (excitation 360 nm, emission 460 nm). Percent increase over control was calculated from blank-corrected readings as (treated-untreated)/(untreated)*100. Each data point in the Tables below represents a mean of 5 or 6 replicates.
The procedure of Example 2 was repeated except that various co-active ingredients were tested for their ability to stimulate keratinocyte proliferation.
The procedure of Example 2 was repeated to test the effect of combination of an LDH inhibitor with another carboxylic acid on keratinocyte proliferation.

[3] = test system: Keratinocyte Lactate Dehydrogenase; experiment: Keratinocyte lactate dehydrogenase (LDH) inhibition, cell lysate; assay type: biochemical, human
Experimental: as §1

[4] = Table 3, 0.313 mM, three days, read-out: Keratinocyte Proliferation (% increase over control)
[5] = Table 3, 0.625 mM, three days, read-out: Keratinocyte Proliferation (% increase over control)
[6] = Table 3, 1.25 mM, three days, read-out: Keratinocyte Proliferation (% increase over control)
[7] = Table 3, 2.5 mM, three days, read-out: Keratinocyte Proliferation (% increase over control)
[8] = Table 3, 5 mM, three days, read-out: Keratinocyte Proliferation (% increase over control)

| Compound | Fibroblast Lactate Dehydrogenase Inhibition (% Inhibition) ([1]; 0.625 mM) | Fibroblast Lactate Dehydrogenase Inhibition (% Inhibition) ([1]; 1.25 mM) | Fibroblast Lactate Dehydrogenase Inhibition (% Inhibition) ([1]; 2.5 mM) | Fibroblast Lactate Dehydrogenase Inhibition (% Inhibition) ([1]; 5 mM) | further results |
| --- | --- | --- | --- | --- | --- |
| C[C@@H](O)C(=O)O [D-lactate] | 0% | 0% | 0% | 0% |  |
| NCC(=O)O [Glycinate] | 0% | 0% | 0% | 0% |  |
| O=C(O)CO [Glycolate] | 0% | 0% | 0% | 0% |  |
| O=CC(=O)O [Glyoxylate] |  |  |  |  | activation at 313 µM [2, 4]: 33%; activation at 625 µM [2, 5]: 36%; activation at 1250 µM [2, 6]: 9%; activation at 2500 µM [2, 7]: 0%; activation at 5000 µM [2, 8]: 0% |
| O=C(O)C(=O)C(=O)O [Ketomalonate] |  |  |  |  | activation at 313 µM [2, 4]: 23%; activation at 625 µM [2, 5]: 10%; activation at 1250 µM [2, 6]: 0%; activation at 2500 µM [2, 7]: 0%; activation at 5000 µM [2, 8]: 0%; Keratinocyte proliferation, % Increase Over Control ([2]; Table 7, single agent alone, 0.156 mM): 20%; Keratinocyte proliferation, % Increase Over Control ([2]; Table 7, single agent alone, 0.313 mM): 48%; Keratinocyte proliferation, % Increase Over Control ([2]; Table 7, single agent alone, 0.625 mM): 50%; Keratinocyte proliferation, % Increase Over Control ([2]; Table 7, single agent alone, 1.25 mM): 59%; Keratinocyte proliferation, % Increase Over Control ([2]; Table 7, single agent alone, 2.5 mM): 45%; Keratinocyte proliferation, % Increase Over Control ([2]; Table 7, single agent alone, 5.0 mM): 20% |
| C[C@H](O)C(=O)O [L-lactate] | 0% | 0% | 0% | 0% |  |
| O=C(O)C[C@H](O)C(=O)O [L-malate] | 0% | 0% | 0% | 0% |  |
| O=C(O)CC(=O)O [Malonate] | 0% | 0% | 0% | 0% |  |
| O=C(O)C(=O)O [Oxalate] | 54% | 71% | 85% | 89% | activation at 313 µM ([2]; read-out: Keratinocyte Proliferation (% increase over control), Table 3, 0.313 mM, three days): 18%; activation at 625 µM ([2]; read-out: Keratinocyte Proliferation (% increase over control), Table 3, 0.625 mM, three days): 27%; activation at 1250 µM ([2]; read-out: Keratinocyte Proliferation (% increase over control), Table 3, 1.25 mM, three days): 2%; activation at 2500 µM ([2]; read-out: Keratinocyte Proliferation (% increase over control), Table 3, 2.5 mM, three days): 0%; activation at 5000 µM ([2]; read-out: Keratinocyte Proliferation (% increase over control), Table 3, 5 mM, three days): 0%; Keratinocyte Lactate Dehydrogenase Inhibition (% Inhibition) ([3]; 0.625 mM): 39%; Keratinocyte Lactate Dehydrogenase Inhibition (% Inhibition) ([3]; 1.25 mM): 58%; Keratinocyte Lactate Dehydrogenase Inhibition (% Inhibition) ([3]; 2.5 mM): 76%; Keratinocyte Lactate Dehydrogenase Inhibition (% Inhibition) ([3]; 5 mM): 87% |
| c1cn[nH]c1 [Pyrazole] | 0% | 0% | 0% | 0% |  |
| O=C(O)C(O)C(=O)O [Tartronate] |  |  |  |  | activation at 313 µM [2, 4]: 37%; activation at 625 µM [2, 5]: 45%; activation at 1250 µM [2, 6]: 51%; activation at 2500 µM [2, 7]: 50%; activation at 5000 µM [2, 8]: 17%; Keratinocyte proliferation, % Increase Over Control ([2]; Table 8, single agent alone, 0.156 mM): 44%; Keratinocyte proliferation, % Increase Over Control ([2]; Table 8, single agent alone, 0.313 mM): 69%; Keratinocyte proliferation, % Increase Over Control ([2]; Table 8, single agent alone, 0.625 mM): 58%; Keratinocyte proliferation, % Increase Over Control ([2]; Table 8, single agent alone, 1.25 mM): 67%; Keratinocyte proliferation, % Increase Over Control ([2]; Table 8, single agent alone, 2.5 mM): 76%; Keratinocyte proliferation, % Increase Over Control ([2]; Table 8, single agent alone, 5.0 mM): 21% |
| Methylpyrazole | 0% | 0% | 0% | 0% |  |

Reference: patent US5595730A, “Lactate dehydrogenase inhibitors in cosmetic compositions” (priority 1996, dated 1997)
